Test results: the CheMixHub ionic liquid set

Assay: xn = mol fraction of the nth substance listed

CCCO + CC[n+]1ccn(C)c1.COS(=O)(=O)[O-]
101 kPa, x2 = 0
Conditions	viscosity [mPa·s]
283.15 K	2.78
293.15 K	2.18
313.15 K	1.36
323.15 K	1.11

CCCC[n+]1ccn(C)c1.N#C[S-] + [Cl-].[Li+] + CN1CCCC1=O
298.15 K, 101 kPa
Conditions	viscosity [mPa·s]
x1 = 0.000959, x2 = 0.03815	2.65
x1 = 0.001063, x2 = 0.07221	3.61
x1 = 0.001192, x2 = 0.104	4.991
x1 = 0.002304, x2 = 0.07212	3.657
x1 = 0.002399, x2 = 0.03809	2.683
x1 = 0.00252, x2 = 0.1039	5.021
x1 = 0.003854, x2 = 0.03804	2.715
x1 = 0.003994, x2 = 0.072	3.706
x1 = 0.00415, x2 = 0.1037	5.048
x1 = 0.005535, x2 = 0.03797	2.75
x1 = 0.005737, x2 = 0.1036	5.082
x1 = 0.005932, x2 = 0.07186	3.734
x1 = 0.006974, x2 = 0.07178	3.765
x1 = 0.007127, x2 = 0.1034	5.104
x1 = 0.007392, x2 = 0.0379	2.777
x1 = 0.008668, x2 = 0.1032	5.141
x1 = 0.008714, x2 = 0.07165	3.796
x1 = 0.009327, x2 = 0.03783	2.805
x1 = 0.009861, x2 = 0.07157	3.834
x1 = 0.009986, x2 = 0.1031	5.166
x1 = 0.01105, x2 = 0.03776	2.846
x1 = 0.01164, x2 = 0.1029	5.198
x1 = 0.01191, x2 = 0.07142	3.877
x1 = 0.01372, x2 = 0.03766	2.869

C=CC[n+]1ccn(C)c1.[Cl-] + NC(N)=O
101 kPa
Conditions	electrical conductivity, 298 K [S/m]	electrical conductivity, 308 K [S/m]	electrical conductivity, 318 K [S/m]	electrical conductivity, 328 K [S/m]	electrical conductivity, 338 K [S/m]	viscosity, 298.15 K [mPa·s]
x1 = 0.5579	0.169	0.228	0.287	0.342	0.416	405
x1 = 0.6543	0.222	0.298	0.372	0.448	0.538	353
x1 = 0.7911	0.283	0.372	0.464	0.562	0.677	299
x1 = 1	0.411	0.498	0.618	0.736	0.862	255

NCC(=O)O + CCCCCCCCCCCCCCCC[n+]1ccccc1.[Cl-] + O
308.15 K, 101 kPa
Conditions	electrical conductivity [S/m]
x1 = 2.018e-05, x2 = 0	6.2e-05
x1 = 0.0002, x2 = 0	0.000171
x1 = 0.0003639, x2 = 0	0.000413
x1 = 0.0009182, x2 = 0	0.00011
x1 = 0.001802, x2 = 0	0.000292

CCCC[n+]1ccn(C)c1.N#C[N-]C#N + O=[N+]([O-])[O-].[Li+]
electrical conductivity [S/m], 101 kPa
Conditions	x1 = 0.7634	x1 = 0.8104	x1 = 0.859	x1 = 0.9137	x1 = 0.9799	x1 = 1
288.15 K	–	0.155	0.246	0.377	0.599	0.596
298.15 K	0.193	0.272	0.417	0.612	0.924	0.925
333.15 K	0.902	1.17	1.47	1.95	2.6	2.77

C[C@H](N)C(=O)[O-].C[N+](C)(C)CCO + CCO
100 kPa
Conditions	viscosity [mPa·s]
287.88 K, x1 = 1	4500
287.97 K, x1 = 0.6071	550
288 K, x1 = 0.2012	17.5
288.02 K, x1 = 0.1013	5.6
288.04 K, x1 = 0.8027	1750
288.05 K, x1 = 0.3782	89
288.05 K, x1 = 0.5527	359
288.05 K, x1 = 0.7056	1079
288.09 K, x1 = 0.2903	42
288.1 K, x1 = 1	5100
288.12 K, x1 = 0.894	2875
289.23 K, x1 = 0.6071	520
289.25 K, x1 = 0.3782	88
289.26 K, x1 = 0.2012	17
289.26 K, x1 = 0.8027	1625
289.28 K, x1 = 0.1013	5.3
289.28 K, x1 = 0.5527	339
289.29 K, x1 = 0.7056	990
289.31 K, x1 = 0.2903	40.6
289.34 K, x1 = 0.894	2592
289.96 K, x1 = 1	3700
290.21 K, x1 = 1	4300
290.48 K, x1 = 0.6071	470
290.5 K, x1 = 0.3782	85
290.51 K, x1 = 0.2012	16.4
290.51 K, x1 = 0.8027	1464
290.52 K, x1 = 0.1013	5.1
290.52 K, x1 = 0.5527	315
290.52 K, x1 = 0.7056	900
290.53 K, x1 = 0.2903	39.2
290.55 K, x1 = 0.894	2319
291.71 K, x1 = 0.6071	430
291.72 K, x1 = 0.2012	15.7
291.72 K, x1 = 0.3782	80
291.73 K, x1 = 0.1013	4.9
291.73 K, x1 = 0.2903	37.6
291.73 K, x1 = 0.5527	291
291.73 K, x1 = 0.7056	820
291.73 K, x1 = 0.8027	1311
291.74 K, x1 = 0.894	2072
292.02 K, x1 = 1	3052
292.32 K, x1 = 1	3520
292.91 K, x1 = 0.1013	4.7
292.91 K, x1 = 0.3782	76
292.91 K, x1 = 0.6071	394
292.92 K, x1 = 0.2012	15
292.92 K, x1 = 0.2903	36
292.92 K, x1 = 0.5527	268
292.92 K, x1 = 0.7056	740
292.92 K, x1 = 0.8027	1180
292.92 K, x1 = 0.894	1858
294.08 K, x1 = 1	2544
294.09 K, x1 = 0.1013	4.5
294.09 K, x1 = 0.2012	14.3
294.09 K, x1 = 0.2903	34.4
294.09 K, x1 = 0.6071	360
294.1 K, x1 = 0.3782	73
294.1 K, x1 = 0.5527	248
294.1 K, x1 = 0.7056	670
294.1 K, x1 = 0.8027	1065
294.1 K, x1 = 0.894	1669
294.41 K, x1 = 1	2896
295.27 K, x1 = 0.1013	4.4
295.27 K, x1 = 0.2012	13.8
295.27 K, x1 = 0.2903	33.1
295.27 K, x1 = 0.3782	70
295.27 K, x1 = 0.5527	231
295.27 K, x1 = 0.6071	333
295.27 K, x1 = 0.7056	620
295.27 K, x1 = 0.8027	970
295.27 K, x1 = 0.894	1510
296.14 K, x1 = 1	2140
296.45 K, x1 = 0.1013	4.2
296.45 K, x1 = 0.2012	13.2
296.45 K, x1 = 0.2903	31.7
296.45 K, x1 = 0.3782	66
296.45 K, x1 = 0.5527	216
296.45 K, x1 = 0.6071	308
296.45 K, x1 = 0.7056	560
296.45 K, x1 = 0.8027	880
296.45 K, x1 = 0.894	1365
296.48 K, x1 = 1	2402
297.63 K, x1 = 0.1013	3.97
297.63 K, x1 = 0.2012	12.6
297.63 K, x1 = 0.2903	30.2
297.63 K, x1 = 0.3782	63
297.63 K, x1 = 0.5527	200
297.63 K, x1 = 0.6071	283
297.63 K, x1 = 0.7056	520
297.63 K, x1 = 0.8027	800
297.63 K, x1 = 0.894	1234
298.2 K, x1 = 1	1806
298.54 K, x1 = 1	2000
298.81 K, x1 = 0.1013	3.81
298.81 K, x1 = 0.2012	12.1
298.81 K, x1 = 0.2903	29.1
298.81 K, x1 = 0.3782	61
298.81 K, x1 = 0.5527	188
298.81 K, x1 = 0.6071	263
298.81 K, x1 = 0.7056	480

CCCCn1cc[n+](CCOCCOCC[n+]2ccn(CCCC)c2)c1.O=S(=O)([N-]S(=O)(=O)C(F)(F)F)C(F)(F)F.O=S(=O)([N-]S(=O)(=O)C(F)(F)F)C(F)(F)F + CC[n+]1ccn(C)c1.N#C[N-]C#N + O=S(=O)([N-]S(=O)(=O)C(F)(F)F)C(F)(F)F.[Li+]
100 kPa, x1 = 0.1442, x2 = 0.7526
Conditions	electrical conductivity [S/m]
298 K	0.677
303 K	0.795
313 K	1.05
323 K	1.39
333 K	1.71
343 K	2.08
